Test results: patent US11236367B2, “Fatty acid decarboxylase and its uses” (COMMISSARIAT A L'ENERGIE ATOMIQUE ET AUX ENERGIES …, priority 2016, dated 2022)

What was measured:
Type in all cases: biochemical, Chlorella variabilis NC64A
[1] = target: T1, Chlorella GMC oxidoreductase (Chlorella variabilis, UniProt A0A248QE08); experiment: 13CO2 release from 1-13C-palmitate with the purified enzyme (membrane inlet mass spectrometry); conditions: palmitic acid labelled with 13C on the carboxylic group
T1 construct: 6 His-tagged thioredoxin (N, cleaved yes); TEV protease-cleavage site (N, cleaved yes); made in house; host or cells: E. coli BL21-CodonPlus (DE3)-RIL
Protocol: All assays were performed in transparent glass vials sealed using caps with septum. Optimum pH was determined using a Teorell Stenhagen universal buffer (33 mM citric acid monohydrate, 33 mM phosphoric acid, 100 mM NaOH, 16.7 mM of boric acid, pH 8.5 adjusted with 1N HCl). Other assays were performed in 100 mM Tris HCl pH 8.5, 100 mM NaCl. Reaction mixtures (500 μL) typically contained 160 nM purified enzyme (stock ? solution 2.5 mg ml^−1) and 400 μM substrate (stock solution 10 mM in ethanol). In some assays, a lipase was used with the alkane synthase. In this case, substrate was a triacylglycerol. Generally, samples were shaken at 200 rpm during 15 min under LED-made white light at 2000 μmol ? photons m^−2s^−1. After the incubations, samples were heated at 95° C. during 15 min to stop the enzymatic reaction. Samples were cooled down and internal standard (hexadecane) was added (45 nmol from a 4.5 mM stock solution in chloroform). NaOH was then added to the reaction mixture (10 μL from a stock solution of 10 M) and samples were vortexed for 5 min. […] The hexane phase was collected by centrifugation and analyzed by GC-MS-FID. […] In FIG. 11 activity on 1-^13C-palmitate was monitored by release of ^13CO2 using membrane inlet mass spectrometry. […]
Online measurements of ^12CO2 (m/z=44) and ^13CO2 (m/z=45) were monitored using mass spectrometry (model Prima B, Thermo Scientific). […]

[2] = target: T1, Chlorella GMC oxidoreductase; experiment: Enzymatic assay with purified recombinant enzyme (GC-MS of products); conditions: for conversion of substrate by the enzyme (product formed): purified recombinant enzyme, white light
Protocol: All assays were performed in transparent glass vials sealed using caps with septum. Optimum pH was determined using a Teorell Stenhagen universal buffer (33 mM citric acid monohydrate, 33 mM phosphoric acid, 100 mM NaOH, 16.7 mM of boric acid, pH 8.5 adjusted with 1N HCl). Other assays were performed in 100 mM Tris HCl pH 8.5, 100 mM NaCl. Reaction mixtures (500 μL) typically contained 160 nM purified enzyme (stock ? solution 2.5 mg ml^−1) and 400 μM substrate (stock solution 10 mM in ethanol). In some assays, a lipase was used with the alkane synthase. In this case, substrate was a triacylglycerol. Generally, samples were shaken at 200 rpm during 15 min under LED-made white light at 2000 μmol ? photons m^−2s^−1. After the incubations, samples were heated at 95° C. during 15 min to stop the enzymatic reaction. Samples were cooled down and internal standard (hexadecane) was added (45 nmol from a 4.5 mM stock solution in chloroform). NaOH was then added to the reaction mixture (10 μL from a stock solution of 10 M) and samples were vortexed for 5 min. Then 250 μL of hexane was added and samples were vortexed for 5 min to extract alkanes and alkenes. The hexane phase was collected by centrifugation and analyzed by GC-MS-FID. The analysis was done by direct injection of 100 μl of the headspace into a GC-MS. In FIG. 11 activity on 1-^13C-palmitate was monitored by release of ^13CO2 using membrane inlet mass spectrometry. Illuminations were provided by CBT-120 LEDs (Luminous, Billerica) either blue (peak at 460 nm, 25 nm FWHM), or red (peak at 635 nm, 15 nm FWHM) at an intensity of 850 μmol photons m^−2 s^−1.

[3] = target: T2, alkane synthase activity of Chlorella homogenate (Chlorella variabilis, UniProt A0A248QE08); experiment: Alkane synthase activity assay on Chlorella homogenate and purification fractions (SPME, GC-MS); conditions: for effect of added co-factor on alkane synthase activity: added in different combinations to the solubilized microsomal fraction
T2 construct: Reaction mixtures contained 500 μL of each purification fraction; endogenous in cells; host or cells: Chlorella cells (homogenate, solubilized microsomal fraction, chromatography fractions)
Protocol: Enzymatic assays were performed in transparent glass vials sealed using caps with septum. Reaction mixtures contained 500 μL of each purification fraction, 200 μM of perdeuterated palmitic acid (10 mM stock solution in ethanol) and 45 nmol hexadecane as internal standard (4.5 mM stock solution in chloroform). Vials were agitated at 120 rpm overnight at 25° C. under a white light (intensity 120 μmol photons m^−2s^−1). Reaction was stopped by the addition of 10 μL NaOH 10 M through the septum using a syringe. Hydrocarbons produced were analyzed by incubating in the headspace of the vial a solid phase microextraction (SPME) fiber (DVB PDMS fused silica, 65 μm double-polar, Supelco) mounted on a holder. After 15 min incubation at room temperature the SPME fiber was immediately inserted into the injector of the GC-MS and desorbed at 250° C. GC-MS analysis was carried out as described below.

T2 sequence (A0A248QE08 61-654 limits assumed): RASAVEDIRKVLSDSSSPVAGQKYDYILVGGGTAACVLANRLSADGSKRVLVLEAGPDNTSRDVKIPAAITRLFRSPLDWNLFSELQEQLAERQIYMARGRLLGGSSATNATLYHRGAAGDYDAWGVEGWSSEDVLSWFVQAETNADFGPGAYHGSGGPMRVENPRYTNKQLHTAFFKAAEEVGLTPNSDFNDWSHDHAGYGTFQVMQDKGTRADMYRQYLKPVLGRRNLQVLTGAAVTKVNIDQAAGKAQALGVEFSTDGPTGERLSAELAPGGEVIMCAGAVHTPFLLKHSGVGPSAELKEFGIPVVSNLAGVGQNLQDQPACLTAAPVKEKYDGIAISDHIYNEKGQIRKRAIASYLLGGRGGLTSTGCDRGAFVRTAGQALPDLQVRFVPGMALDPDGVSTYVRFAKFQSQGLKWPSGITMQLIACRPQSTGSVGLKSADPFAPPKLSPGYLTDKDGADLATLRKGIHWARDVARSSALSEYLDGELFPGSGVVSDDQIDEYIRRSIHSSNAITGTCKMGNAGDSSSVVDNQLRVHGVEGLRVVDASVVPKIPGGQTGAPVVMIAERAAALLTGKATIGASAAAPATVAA
T1 sequence (A0A248QE08 62-654): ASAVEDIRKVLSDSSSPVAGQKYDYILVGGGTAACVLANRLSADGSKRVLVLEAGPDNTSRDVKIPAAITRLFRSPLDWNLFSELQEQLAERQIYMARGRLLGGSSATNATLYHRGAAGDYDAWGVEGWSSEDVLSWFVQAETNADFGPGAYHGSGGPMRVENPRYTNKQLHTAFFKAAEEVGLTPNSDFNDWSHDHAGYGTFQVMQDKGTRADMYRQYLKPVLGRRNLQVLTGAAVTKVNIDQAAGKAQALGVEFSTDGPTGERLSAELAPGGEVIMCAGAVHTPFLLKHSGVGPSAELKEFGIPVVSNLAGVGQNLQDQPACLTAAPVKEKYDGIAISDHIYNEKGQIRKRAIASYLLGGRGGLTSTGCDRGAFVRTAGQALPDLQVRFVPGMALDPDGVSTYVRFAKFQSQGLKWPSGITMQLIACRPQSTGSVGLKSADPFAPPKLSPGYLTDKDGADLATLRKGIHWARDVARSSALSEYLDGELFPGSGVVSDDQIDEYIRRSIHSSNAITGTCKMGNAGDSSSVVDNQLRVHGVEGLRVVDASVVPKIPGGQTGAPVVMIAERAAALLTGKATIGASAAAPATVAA

| Compound | conversion of substrate by the enzyme (product formed) [2] | effect of added co-factor on alkane synthase activity [3] | other results |
| --- | --- | --- | --- |
| CCCCCCCCCCCCCCC[13C](=O)O [1-^13C-palmitate, reference compound] | – | – | co-product released from labelled substrate [1]: production of ^13CO2 |
| O=C(O)CCCCCCCCCCCCCCCO [16-OH palmitic acid] | production of pentadecanol | – | – |
| Nc1ncnc2c1ncn2[C@@H]1O[C@H](COP(=O)(O)OP(=O)(O)OP(=O)(O)O)[C@@H](O)[C@H]1O [ATP] | – | None of them were found to increase the activity | – |
| [2H]C([2H])([2H])C([2H])([2H])C([2H])([2H])C([2H])([2H])C([2H])([2H])C([2H])([2H])C([2H])([2H])C([2H])([2H])C([2H])([2H])C([2H])([2H])C([2H])([2H])C([2H])([2H])C([2H])([2H])C([2H])([2H])C([2H])([2H])C(=O)O [Deuterated palmitic acid, perdeuterated (D31) palmitic acid] | – | – | formation of labelled pentadecane from labelled substrate ([3]; Chlorella cell homogenate, overnight incubation in sealed vial): labelled pentadecane could be detected |
| NC(=O)C1=CN([C@@H]2O[C@H](COP(=O)(O)OP(=O)(O)OC[C@H]3O[C@@H](n4cnc5c(N)ncnc54)[C@H](OP(=O)(O)O)[C@@H]3O)[C@@H](O)[C@H]2O)C=CC1 [NADPH] | – | None of them were found to increase the activity | – |
| NC(=O)c1ccc[n+]([C@@H]2O[C@H](COP(=O)([O-])OP(=O)(O)OC[C@H]3O[C@@H](n4cnc5c(N)ncnc54)[C@H](OP(=O)(O)O)[C@@H]3O)[C@@H](O)[C@H]2O)c1 [NADP] | – | None of them were found to increase the activity | – |
| CC(C)CCCC(C)CCCC(C)CCCC(C)CC(=O)O (stereo not drawn) [Phytanic acid, 3,7,11,15-tetramethylhexadecanoic acid] | converted into branched alkanes | – | – |
| CCCCCCCCCCCCCCCCC(=O)OCC(COC(=O)CCCCCCCCCCCCCCCC)OC(=O)CCCCCCCCCCCCCCCC [TAGs, glyceryl triheptadecanoate] | cannot use TAGs (triacylglycerol) directly as substrate | – | conversion of substrate by the enzyme in presence of a TAG lipase ([2]; purified enzyme plus TAG lipase): production of hydrocarbons is observed |
